Consider four compounds from US5455251A, “Michellamine antiviral agents, compositions, and treatment methods” (The United States of America as represented by the …, priority 1993, dated 1995).

Entries after “also recorded” stand apart in the source; their conditions may differ. Like-named read-outs stand apart in the source and are kept apart here. Some results are limits rather than exact numbers.

For data set [1], the system named is HIV-1. The note with it: cultured human lymphoblastoid cell lines; Yarchoan et al. 1986; cited from earlier work.
The test system of data set [2] is HIV-2. Put plainly: Anti-HIV-2 (CBL20 strain) activity in CEM-SS cells, XTT assay. Type of data set: cell-based, HIV-2 CBL20 strain in human CEM-SS cells. The note with it: acetate salts. As for the experimental part: (§1) The human lymphocytic target cell lines, CEM-SS and MT-2, used in the antiviral assays were maintained in RPMI 1640 medium (Gibco, Grand Island, N.Y.) without phenol red and supplemented with 5% fetal bovine serum (FBS) (Gibco), 2 mM L-glutamine, and 50 μg/ml gentamicin (Gibco) (complete medium). Exponentially-growing CEM-SS or MT-2 cells were pelleted and resuspended at a concentration of 2.0×10^5 cells/ml in complete medium. For the HIV-1 studies, the Haitian variant of HIV, HTLV-IIIRFwas used. For the HIV-2 studies, the NIH-DZ strain or the CBL20 strain was used. Frozen virus stock solutions were thawed immediately before use and resuspended in complete medium to yield 1.2×10 ^5 SFU/ml.
The appropriate amounts of the pure compounds for anti-HIV evaluations were dissolved in 100% dimethylsulfoxide (DMSO) and then diluted in complete medium to the desired initial concentration (with final DMSO content not exceeding 1%). All serial dilutions of the michellamines A, B, and C, reagent additions, and plate-to-plate transfers were carried out using an automated Biomek 1000 Workstation (Beckman Instruments, Palo Alto, Calif.). Each compound was diluted initially in complete medium and added to a single column of a 96-well microtiter plate (dilution plate). The Biomek was used to perform eight serial dilutions of each drug and to transfer a 100 μl aliquot of each dilution to the test plate. Uninfected CEM-SS or MT-2 cells were plated at a density of 1×10^4 cells in 50 μl of complete medium. Diluted HIV-1 or HIV-2 virus was then added to appropriate wells in a volume of 50 μl to yield a multiplicity of infection of 0.6. Appropriate cell, virus, and drug controls were used, with the final volume in each well being 200 μl. […] Subsequently, aliquots of cell-free supernatant were removed from each well using the Biomek, and analyzed for reverse transcriptase activity, p24 antigen production, and synthesis of infectious virions (see further below). A 25 μl sample of 0.002% (w/v) Fluoricon reference particles (590/620 nm) (Baxter Healthcare Corp.) was added to each well of the test plate to be used as an internal standard for fluorescence assays. […]
(§2) As an estimate of cellular viability, the metabolic reduction of the tetrazolium salt, XTT, to the soluble, colored formazan was carried out by adding 50 μl of the XTT/PMS solution to each well of the original test plate and incubating for 4 hrs at 37° C. After incubation the plates were covered with adhesive plate sealers (Dynatech, Alexandria, Va.) and shaken, and optical densities were determined using a V-max photometer (Molecular Devices, Inc., Menlo Park, Calif.) at a test wavelength of 450 nm. […]

In another data set the test system is HIV. Type of data set: cell-based. As for the experimental part:
A portion (2.107 g) of this extract was suspended/dissolved in 330 ml of 5% aqueous HCl and extracted with four 100 ml aliquots of CHCl3.
The crude alkaloid fraction, obtained by acid-base partitioning, was subjected to centrifugal partition chromatography (CHCl3 --CH3 OH--0.5% HBr/H2 O, 5:5:3), and elution with the lower phase gave four fractions.

Data set [3] has as its system HIV-2. Put plainly: Anti-HIV-2 (NIH-DZ strain) activity in MT-2 cells, XTT assay, 6 days. The class given is cell-based, HIV-2 NIH-DZ strain in human MT-2 cells. The note with it: for antiviral effects against HIV-2: free bases or HBr salts, NIH-DZ strain, MT-2 cells. Here is the method: as §1
The appropriate amounts of the pure compounds for anti-HIV evaluations were dissolved in 100% dimethylsulfoxide (DMSO) and then diluted in complete medium to the desired initial concentration (with final DMSO content not exceeding 1%). All serial dilutions of the michellamines A, B, and C, reagent additions, and plate-to-plate transfers were carried out using an automated Biomek 1000 Workstation (Beckman Instruments, Palo Alto, Calif.). […] Subsequently, aliquots of cell-free supernatant were removed from each well using the Biomek, and analyzed for reverse transcriptase activity, p24 antigen production, and synthesis of infectious virions (see further below). A 25 μl sample of 0.002% (w/v) Fluoricon reference particles (590/620 nm) (Baxter Healthcare Corp.) was added to each well of the test plate to be used as an internal standard for fluorescence assays. […]
as §2

In the next data set the test system is uninfected CEM-SS cells. Put plainly: Direct cytotoxicity to uninfected CEM-SS target cells (XTT/BCECF), 6 days. The class given is cell-based, human. Conditions: acetate salts, XTT assay, Table 4. Here is the method:
(§3) A battery of interrelated assays on individual wells from 96-well microtiter plates was performed to show antiviral activity. Measurements of cellular viability, in the presence and absence of the compounds in uninfected and virus-infected cells, by an adaptation of the procedure set forth in Weislow et al., J. Natl. Cancer Inst., 81, 577-586 (1989), as well as by an adaptation of a method using the fluorescent probe 2'-7'-biscar-boxyethyl-5(6)-carboxyfluorescein acetoxymethyl ester (BCECF) as set forth in Rink et al., J. Cell Biol., 95, 189-196 (1982), were performed as described herein below. BCECF is a nonfluorescent molecule which readily enters viable cells where it is hydrolyzed by cellular esterases to a fluorescent molecule. Total cellular DNA content was measured with the dye, 2-diamidino-phenylindole (DAPI), which fluoresces when intercalated at A-T specific sites in chromatin, according to the procedure set forth in McCaffrey et al., In Vitro Cell. Develop. Biol., 24, 247-252 (1988). These dyes are used in combination with Particle Concentration Fluorescent Immunoassay technology (PCFIA), specifically the Screen Machine™ available from Baxter Healthcare Corporation (Mundelein, Ill.). The Screen Machine is a semiautomated fluorescent plate reader capable of adding reagents and/or wash buffers to filter-bottomed, 96-well plates with the subsequent evacuation of fluid and concentration of fluorescently-stained cells on the cellulose acetate filter. Fluorescence is detected via epifluorescence. […]
(§4) The appropriate amounts of the pure compounds for anti-HIV evaluations were dissolved in 100% dimethylsulfoxide (DMSO) and then diluted in complete medium to the desired initial concentration (with final DMSO content not exceeding 1%). […] Subsequently, aliquots of cell-free supernatant were removed from each well using the Biomek, and analyzed for reverse transcriptase activity, p24 antigen production, and synthesis of infectious virions (see further below). […]
On the technique in general: Tetrazolium dyes change colour on reduction, which living cells bring about.

Data set [4] concerns HIV-1. Put plainly: Cytoprotection of HIV-1-infected CEM-SS cells, viability by XTT and/or BCECF, 6 days. Type of data set: cell-based. The note with it: acetate salts, XTT assay, HIV-1, side-by-side comparison (Table 4), read-out: EC50 (anti-HIV-1 activity). Here is the method:
as §3, §4

Data set [5] is described as follows: Variable temperature NMR for spontaneous interconversion of atropisomers. Type of data set: physicochemical. An excerpt: Michellamine C appears to have the opposite configuration from michellamine A about the C-5/C-8' and C-5"'/C-8" bonds.

In the case of `Cc1cn([C@H]2C[C@H](N=[N+]=[N-])[C@@H](CO)O2)c(=O)[nH]c1=O` [AZT], in the data set with HIV-1 [1], the “in vitro cytoprotective effects against HIV-1” value is on record as “in vitro cytoprotective effects against the HIV-1”.

For orientation: EC50 means the concentration giving half of the maximal effect. Usually IC50 stands for the point on the concentration scale where inhibition reaches its midpoint. Regarding `COc1cc(C)cc2c(-c3c(O)cc(O)c4c3C[C@@H](C)N[C@@H]4C)cc(-c3cc(-c4c(O)cc(O)c5c4C[C@@H](C)N[C@@H]5C)c4cc(C)cc(OC)c4c3O)c(O)c12` [Michellamine A], the EC50 with HIV-2 [2] (listed as michellamine A) was roughly 10 µM; in the data set on HIV-1 [4] (Human immunodeficiency virus 1, CEM-SS) it was 9.6 µM. The “anti-HIV-2 potency, comparison in words” value in the data set on HIV-2 [2] (listed as michellamine A) is recorded as “somewhat less potent”. Moreover, the “anti-HIV activity of isolated compounds” value in the data set with HIV is “active”. In addition, the “antiviral effects against HIV-2” value in the data set on HIV-2 [3] (listed as michellamine A) is “showed antiviral effects”. Also, in the data set on uninfected CEM-SS cells (Homo sapiens, CEM-SS), the IC50 worked out at 168 µM.

Take `COc1cc(C)cc2c(-c3c(O)cc(O)c4c3C[C@@H](C)N[C@@H]4C)cc(-c3cc(-c4c(O)cc(O)c5c4C[C@@H](C)N[C@@H]5C)c4cc(C)cc(OC)c4c3O)c(O)c12` [Michellamine B]: the half-maximal effective concentration (EC50) is less than 2 µM in the data set on HIV-2 [2] (listed as michellamine B) and 9.6 µM in the data set with HIV-1 [4] (listed as B). For the same compound, the EC (essentially complete protection) with HIV-2 [3] (Human immunodeficiency virus 2, MT2, 144 h, read-out: concentration giving essentially complete protection against killing effects of HIV-2 upon MT-2 cells) lay in the range of 30 to 100 µM. The “antiviral effects against HIV-2” value in the data set on HIV-2 [3] (listed as michellamine B) was “showed antiviral effects; also recorded: consistently was more potent than michellamine A against HIV-2”. The IC50 with uninfected CEM-SS cells (listed as B) is greater than 240 µM.

Consider `COc1cc(C)cc2c(-c3c(O)cc(O)c4c3C[C@@H](C)N[C@@H]4C)cc(-c3cc(-c4c(O)cc(O)c5c4C[C@@H](C)N[C@@H]5C)c4cc(C)cc(OC)c4c3O)c(O)c12` [Michellamine C], for which the spontaneous interconversion entry in data set [5] is on record as “failed to show evidence of spontaneous interconversion”. For the same compound, the EC50 is less than 2 µM in the data set on HIV-2 [2] (listed as michellamine C) and 12.8 µM in the data set on HIV-1 [4] (listed as C). In addition, the IC50 in the data set on uninfected CEM-SS cells (listed as C) came out at 193 µM.
